Data as given in ChEMBL document CHEMBL3885861, “Open TG-GATES”.

Species: Rattus norvegicus
Test: Open TG-GATES - Regimen: Daily Repeat
Assay type: toxicity, organism-based, Sprague-Dawley
Design: regimen Daily Repeat, gender Male, age 6 weeks
Conditions: in vivo, po, 30 mg/kg, route gavage, dose level Low; for APTT / Bas / Eos / Fbg / Hb / Ht / Lym / MCH / MCHC / MCV / Mono / Neu / PT / Plat / RBC / Ret / WBC: tissue Blood; for KIDNEY_L / KIDNEY_R / KIDNEY_TOTAL: tissue Kidney; for LIVER: tissue Liver; for A/G / ALP / ALT / AST / BUN / CRE / Ca / Cl / DBIL / GLC / IP / K / LDH / Na / PL / RALB / TBIL / TC / TG / TP / gamma-GTP: tissue Plasma

CC(=O)Nc1ccc2c(c1)Cc1ccccc1-2 [2-ACETYLAMINOFLUORENE]
TERMINAL_BW (72 h, time 3 day): 222.5 g
APTT (72 h, time 3 day): 18.9 s
Bas (72 h, time 3 day): 0.6%
Eos (72 h, time 3 day): 1%
Fbg (72 h, time 3 day): 226.6 mg/dL
Hb (72 h, time 3 day): 14.8 g/dL
Ht (72 h, time 3 day): 42.2%
Lym (72 h, time 3 day): 81%
MCH (72 h, time 3 day): 22.3 pg
MCHC (72 h, time 3 day): 35%
MCV (72 h, time 3 day): 63.7 fL
Mono (72 h, time 3 day): 2.8%
Neu (72 h, time 3 day): 14%
PT (72 h, time 3 day): 12.3 s
Plat (72 h, time 3 day): 131.4 x10_4/uL
RBC (72 h, time 3 day): 663 x10_4/ul
Ret (72 h, time 3 day): 4.1%
WBC (72 h, time 3 day): 118 x10_2/uL
KIDNEY_L (72 h, time 3 day): 1 g
KIDNEY_R (72 h, time 3 day): 1 g
KIDNEY_TOTAL (72 h, time 3 day): 2 g
LIVER (72 h, time 3 day): 10.6 g
A/G (72 h, time 3 day): 1.5
ALP (72 h, time 3 day): 746.6 IU/L
ALT (72 h, time 3 day): 26.6 IU/L
AST (72 h, time 3 day): 69.2 IU/L
BUN (72 h, time 3 day): 12.4 mg/dL
CRE (72 h, time 3 day): 0.4 mg/dL
Ca (72 h, time 3 day): 10.3 mg/dL
Cl (72 h, time 3 day): 102.8 meq/L
DBIL (72 h, time 3 day): 0.086 mg/dL
GLC (72 h, time 3 day): 196.4 mg/dL
IP (72 h, time 3 day): 7.2 mg/dL
K (72 h, time 3 day): 4.1 meq/L
LDH (72 h, time 3 day): 241 IU/L
Na (72 h, time 3 day): 140.2 meq/L
PL (72 h, time 3 day): 100.8 mg/dL
RALB (72 h, time 3 day): 2.9 g/dL
TBIL (72 h, time 3 day): 0.1 mg/dL
TC (72 h, time 3 day): 50.2 mg/dL
TG (72 h, time 3 day): 77 mg/dL
TP (72 h, time 3 day): 5 g/dL
gamma-GTP (72 h, time 3 day): 1.2 IU/L
TERMINAL_BW ([…], time 7 day): 239.2 g
TERMINAL_BW ([…], time 14 day): 259.1 g
TERMINAL_BW ([…], time 28 day): 315.1 g
APTT ([…], time 7 day): 18.4 s
Bas ([…], time 7 day): 0.8%
Eos ([…], time 7 day): 1%
Fbg ([…], time 7 day): 204 mg/dL
Hb ([…], time 7 day): 15.4 g/dL
Ht ([…], time 7 day): 42.8%
Lym ([…], time 7 day): 82%
MCH ([…], time 7 day): 22.2 pg
MCHC ([…], time 7 day): 35.9%
MCV ([…], time 7 day): 61.9 fL
Mono ([…], time 7 day): 3%
Neu ([…], time 7 day): 12.6%
PT ([…], time 7 day): 13 s
Plat ([…], time 7 day): 159.6 x10_4/uL
RBC ([…], time 7 day): 692.2 x10_4/ul
Ret ([…], time 7 day): 1.8%
WBC ([…], time 7 day): 125.9 x10_2/uL
APTT ([…], time 14 day): 19.1 s
Bas ([…], time 14 day): 1%
Eos ([…], time 14 day): 0%
Fbg ([…], time 14 day): 102.2 mg/dL
Hb ([…], time 14 day): 14.7 g/dL
Ht ([…], time 14 day): 42%
Lym ([…], time 14 day): 79.8%
MCH ([…], time 14 day): 19.7 pg
MCHC ([…], time 14 day): 35%
MCV ([…], time 14 day): 56.3 fL
Mono ([…], time 14 day): 3.2%
Neu ([…], time 14 day): 15.6%
PT ([…], time 14 day): 14.9 s
Plat ([…], time 14 day): 144.2 x10_4/uL
RBC ([…], time 14 day): 747.2 x10_4/ul
Ret ([…], time 14 day): 1.8%
WBC ([…], time 14 day): 145.6 x10_2/uL
APTT ([…], time 28 day): 25.4 s
Bas ([…], time 28 day): 0.8%
Eos ([…], time 28 day): 0.6%
Fbg ([…], time 28 day): 78.2 mg/dL
Hb ([…], time 28 day): 14 g/dL
Ht ([…], time 28 day): 40.8%
Lym ([…], time 28 day): 67.6%
MCH ([…], time 28 day): 19 pg
MCHC ([…], time 28 day): 34.3%
MCV ([…], time 28 day): 55.4 fL
Mono ([…], time 28 day): 4.2%
Neu ([…], time 28 day): 26.4%
PT ([…], time 28 day): 19.2 s
Plat ([…], time 28 day): 102.7 x10_4/uL
RBC ([…], time 28 day): 735.6 x10_4/ul
Ret ([…], time 28 day): 5.3%
WBC ([…], time 28 day): 274.6 x10_2/uL
KIDNEY_L ([…], time 7 day): 1 g
KIDNEY_R ([…], time 7 day): 1 g
KIDNEY_TOTAL ([…], time 7 day): 2 g
KIDNEY_L ([…], time 14 day): 1.1 g
KIDNEY_R ([…], time 14 day): 1.1 g
KIDNEY_TOTAL ([…], time 14 day): 2.2 g
KIDNEY_L ([…], time 28 day): 1.3 g
KIDNEY_R ([…], time 28 day): 1.3 g
KIDNEY_TOTAL ([…], time 28 day): 2.6 g
LIVER ([…], time 7 day): 10.5 g
LIVER ([…], time 14 day): 9.9 g
LIVER ([…], time 28 day): 10.2 g
A/G ([…], time 7 day): 1.4
ALP ([…], time 7 day): 1055.8 IU/L
ALT ([…], time 7 day): 35 IU/L
AST ([…], time 7 day): 88 IU/L
BUN ([…], time 7 day): 13.8 mg/dL
CRE ([…], time 7 day): 0.5 mg/dL
Ca ([…], time 7 day): 10.2 mg/dL
Cl ([…], time 7 day): 105.2 meq/L
DBIL ([…], time 7 day): 0.096 mg/dL
GLC ([…], time 7 day): 182.2 mg/dL
IP ([…], time 7 day): 6.4 mg/dL
K ([…], time 7 day): 3.9 meq/L
LDH ([…], time 7 day): 271 IU/L
Na ([…], time 7 day): 140.2 meq/L
PL ([…], time 7 day): 110.6 mg/dL
RALB ([…], time 7 day): 2.6 g/dL
TBIL ([…], time 7 day): 0.2 mg/dL
TC ([…], time 7 day): 44.4 mg/dL
TG ([…], time 7 day): 115 mg/dL
TP ([…], time 7 day): 4.4 g/dL
gamma-GTP ([…], time 7 day): 1.6 IU/L
A/G ([…], time 14 day): 1.3
ALP ([…], time 14 day): 1040.6 IU/L
ALT ([…], time 14 day): 42 IU/L
AST ([…], time 14 day): 98.6 IU/L
BUN ([…], time 14 day): 13 mg/dL
CRE ([…], time 14 day): 0.5 mg/dL
Ca ([…], time 14 day): 9.4 mg/dL
Cl ([…], time 14 day): 104.6 meq/L
DBIL ([…], time 14 day): 0.5 mg/dL
GLC ([…], time 14 day): 171 mg/dL
IP ([…], time 14 day): 7.1 mg/dL
K ([…], time 14 day): 3.9 meq/L
LDH ([…], time 14 day): 211.2 IU/L
Na ([…], time 14 day): 141.2 meq/L
PL ([…], time 14 day): 102.4 mg/dL
RALB ([…], time 14 day): 2.2 g/dL
TBIL ([…], time 14 day): 0.7 mg/dL
TC ([…], time 14 day): 40.8 mg/dL
TG ([…], time 14 day): 43.8 mg/dL
TP ([…], time 14 day): 3.8 g/dL
gamma-GTP ([…], time 14 day): 1.4 IU/L
A/G ([…], time 28 day): 1
ALP ([…], time 28 day): 883 IU/L
ALT ([…], time 28 day): 57.8 IU/L
AST ([…], time 28 day): 155.4 IU/L
BUN ([…], time 28 day): 17.2 mg/dL
CRE ([…], time 28 day): 0.4 mg/dL
Ca ([…], time 28 day): 8.5 mg/dL
Cl ([…], time 28 day): 103.6 meq/L
DBIL ([…], time 28 day): 3 mg/dL
GLC ([…], time 28 day): 130.6 mg/dL
IP ([…], time 28 day): 6.8 mg/dL
K ([…], time 28 day): 4.2 meq/L
LDH ([…], time 28 day): 252.2 IU/L
Na ([…], time 28 day): 140.2 meq/L
PL ([…], time 28 day): 120.2 mg/dL
RALB ([…], time 28 day): 1.7 g/dL
TBIL ([…], time 28 day): 3.8 mg/dL
TC ([…], time 28 day): 60.2 mg/dL
TG ([…], time 28 day): 30.2 mg/dL
TP ([…], time 28 day): 3.4 g/dL
gamma-GTP ([…], time 28 day): 25.4 IU/L
